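Grown in 96-well plates, cells were treated for 48 hours with each compound at five concentrations. Insufficient inhibition: endpoint recorded as highest concentration tested. Abbreviation: GI50, concentration required for 50% inhibition of growth. Definition used: TGI = concentration required for complete inhibition of growth.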
What was measured:
Test in all cases: inhibition of tumour cell growth, NCI panel, 48 h
HS 578T breast = system: HS 578T breast
MALME-3M melanoma = system: MALME-3M melanoma
NCI-H460 lung = system: NCI-H460 lung
CCRF-CEM leukemia = system: CCRF-CEM leukemia
K-562 leukemia = system: K-562 leukemia
SW-620 colon = system: SW-620 colon
NCI-H522 lung = system: NCI-H522 lung
HOP-62 NSCLC = system: HOP-62 NSCLC
OVCAR-4 ovarian = system: OVCAR-4 ovarian
RXF 393 renal = system: RXF 393 renal

Row | Structure (SMILES) | TGI (HS 578T breast) [µM] | TGI (MALME-3M melanoma) [µM] | TGI (NCI-H460 lung) [µM] | TGI (CCRF-CEM leukemia) [µM] | TGI (K-562 leukemia) [µM] | TGI (SW-620 colon) [µM] | TGI (NCI-H522 lung) [µM] | TGI (HOP-62 NSCLC) [µM] | TGI (OVCAR-4 ovarian) [µM] | GI50 (HS 578T breast) [µM] | GI50 (NCI-H460 lung) [µM] | GI50 (CCRF-CEM leukemia) [µM] | GI50 (K-562 leukemia) [µM] | GI50 (SW-620 colon) [µM] | GI50 (NCI-H522 lung) [µM] | GI50 (HOP-62 NSCLC) [µM] | GI50 (OVCAR-4 ovarian) [µM] | GI50 (RXF 393 renal) [µM] | TGI (RXF 393 renal) [µM] | GI50 (MALME-3M melanoma) [µM]
1 | O=C(CCCn1ccnc1[N+](=O)[O-])NCCn1cnc([N+](=O)[O-])c1 | > 100 | > 100 | > 100 | > 100 | > 100 | > 100 | > 100 | > 100 | > 100 |  |  |  |  |  |  |  |  |  |  | 
2 | COc1cc2c(cc1OCCCCC(=O)Nc1ccc(-c3nc4ccccc4s3)cc1)N=C[C@@H]1CCCN1C2=O | 5.86 |  | 3.6 | 3.62 | 11 | 4.03 | 2.65 | 6.62 | 27.9 | 2.75 | 1.67 | 1.2 | 1.75 | 1.64 | 0.972 | 2.45 | 2.82 | 1.61 | 3.05 | 
3 | N#Cc1cc2cc3c4c(c2oc1=O)CCCN4CCC3 | > 100 |  | > 100 | > 100 | > 100 | > 100 | > 100 | > 100 | > 100 |  |  |  |  |  |  |  |  |  | > 100 | 
4 | COc1ccc2nc(-c3ccccc3)cc(Nc3ccc(/C(C)=N/O)cc3)c2c1 | 5.31 | 9.92 | > 23.3 | > 100 | > 100 | > 22.1 | > 24.6 | 5.06 | > 100 | 2.24 | 2.8 | 3.48 | 2.2 | 2.72 | 14.9 | 2.14 | 3.9 |  |  | 2.8
5 | COc1ccc(/C=C/c2nc(N3CCOCC3)c3cc(F)c(F)cc3n2)cc1OC | > 100 |  | > 100 | > 100 |  | > 100 | > 100 | > 100 | > 100 | 54.8 | 5.86 | 4.7 |  | 6.1 | 6.86 | 50.7 | 1.43 | 5.06 | > 100 | 
6 | Cc1c(N2C(=O)/C(=C\c3ccc(O)cc3)N=C2c2ccccc2)c(=O)n(-c2ccccc2)n1C | > 100 | > 100 | > 100 |  | > 100 | > 100 | > 100 | > 100 | > 100 | > 100 | > 100 |  | > 100 | > 100 | > 100 | > 100 | > 100 | > 100 | > 100 | > 100
7 | BrP(NC1CCCCCC1)(c1ccccc1)(c1ccccc1)c1ccccc1 | 12.4 | 12.5 |  | 29 | > 100 | 13.6 | 8.5 | 35.5 |  |  |  |  |  |  |  |  |  |  | 5.57 | 
8 | COC(=O)C1CC2(c3ccc(C)cc3)C(c3ccc(C)cc3)=C(c3ccc(C)cc3)C1(c1ccc(C)cc1)S2=O (stereo not drawn) | > 100 | > 100 | > 100 |  | > 100 | > 100 | > 100 | > 100 | 81.2 | 48.6 | > 100 |  | > 100 | > 100 | 96.3 | 34.8 | 22.5 | 90.2 | > 100 | > 100
9 | CCC[CH2][Sn]1([CH2]CCC)[O]C(=O)C[S]1 |  | 2.52 | 16.9 | 1.57 | 3.59 | 3.13 | 0.814 | 18 | 4.67 |  | 4.09 | 0.324 | 0.405 | 0.984 | 0.212 | 6.86 | 2.16 | 0.573 | 1.88 | 1.14
10 | Cn1cc(-c2csc(-c3cn(CCN4CCOCC4)c4ccc(F)cc34)n2)c2cccnc21 | > 100 | 12.3 | > 100 | 9.18 | 10.3 | 57.5 | 6.63 | 7.59 |  | 3.75 | 3.39 | 3.07 | 2.94 | 3.62 | 2.11 | 2.42 |  | 2.58 | 7.23 | 2.88
11 | COc1cc(/C=C/C(=O)c2c(C)n([O-])c3cc(C)c(C)cc3[n+]2=O)cc(OC)c1OC | 54.2 | 41.1 | 26.3 | > 100 | > 100 | 40.7 | 28.9 | 58.2 | 48 | 19.9 | 10.9 | 5.68 | 18.7 | 13.6 | 10.9 | 20.2 | 16.5 |  |  | 19.6
12 | CC1OC(OC2C(OC3C[C@@]4(C)C(C[C@H](O)[C@H]5[C@H](C6(C)CCC(C(C)(C)O)O6)CCC54C)[C@]4(C)CC[C@@H](O)C(C)(C)C34)OC(CO)C(O)C2O)C(O)C(O)C1O (stereo partly drawn) (tested in a mixture with another compound) | > 100 |  | > 100 | > 100 | > 100 | > 100 | > 100 | > 100 | > 100 |  |  |  |  |  |  |  |  |  | > 100 | 
13 | O=C(c1ccc(O)cc1)c1ccc(C(=O)c2ccc(O)cc2)cc1 | > 100 | > 100 |  |  |  | > 100 | > 100 | 46.7 | > 100 | 27.4 |  |  |  | > 100 | 8.05 | 18 | > 100 | 26.5 | 98.3 | 35.7
14 | C(=C1\CCC/C(=C/c2ccccc2)C1=NNc1ccccc1)/c1ccccc1 |  | > 100 | > 100 | > 100 | > 100 | > 100 | > 100 | > 100 | > 100 |  |  |  |  |  |  |  |  |  | > 100 | 
15 | CC(C)[C@@H](C(=O)O[C@@H]1/C=C/C(=O)O[C@@H](C)CCC/C=C/[C@@H]2C[C@H](O)C[C@H]21)[N+](C)(C)C | > 100 | > 100 | > 100 | > 100 | > 100 | > 100 | > 100 | > 100 | > 100 | > 100 | > 100 | > 100 | > 100 | > 100 | > 100 | > 100 | > 100 |  |  | > 100

— PubChem BioAssay (NCI)
